The nature of data set [1]: in vitro. Particulars: PAMPA, 5 h, 20 μM, pH 7.4. As to the method:
Samples were run in quadruplicate.
Oral administration is noninvasive and is preferred for chronical diseases such as Alzheimer's disease and other CNS disorders. […] In the PAMPA model, the amount of target compounds diffused from a donor compartment to an acceptor compartment through a tri-layer phospholipid pre-coated membrane are measured to assess oral-absorption potential of drug candidates. In the present study, 1, 4, 9, 17, 21 and 30 were evaluated with the PAMPA assay.
On the technique in general: PAMPA measures passive passage across an artificial lipid membrane.

Data set [2] has as its system APP/PS1 transgenic mice. The data set can be described thus: Morris water maze test. The format is in vivo, mouse. As to the method: The backgrounds of all mice (APP/PS1 dual transgenic mice and wild-type mice with littermates) were C57/B6. Transgenic mice were randomly divided into three groups (n=20 for each group), and wild-type mice were used as controls (n=20). […] Throughout the study-period, animals were housed in a controlled environment (temperature, 22° C.; humidity, 50-60%, 12-hour light/12-hour dark schedules), with free access to rodent chow and water. After a Morris water maze test, mice were perfused with cold phosphate-buffered saline (PBS), brain tissues were dissected and kept frozen at −80° C. until further analysis. […] Isoorientin was dissolved in sterilized, ultrapure water, sonicated for 20 minutes at a concentration of 5 mg/ml and 2.5 mg/ml, and stored at 4° C. Isoorientin was administered by oral gavage. The required amount of solution was returned to room temperature before intragastric administration. […] The maze was composed of a circular pool (120 cm in diameter) filled with water (22±2° C.) to a height of 30 cm. […] Mice were given day of adaptive training followed by trials on six consecutive days. Each trial started by gently placing the mouse into the water with its head toward the pool wall of any of the three quadrants without the platform. If an animal found the platform within 60 seconds, it was left on the platform for 20 seconds. […] On the last day of Morris water maze test, the platform was removed and the number of times that the mice crossed the location of the original platform was quantified. Between trials, all mice were placed back in their home cages using a spoon-net to avoid direct contact with the experimenter. All trials were tracked automatically by a digital tracking system (Feidi Biological Technology) assessing path length, swimming speed, and latency to escape from the water.

In data set [3] the test system is Aβ42. Description: Brain Aβ42 by ELISA. Particulars: vs model group. The format is in vivo, mouse. As to the method:
The backgrounds of all mice (APP/PS1 dual transgenic mice and wild-type mice with littermates) were C57/B6. Transgenic mice were randomly divided into three groups (n=20 for each group), and wild-type mice were used as controls (n=20). The control group and one group of transgenic mice (model group) were given sterilized ultrapure water, and the other two groups of transgenic mice received low- and high-dose Isoorientin (20 and 50 mg/kg, respectively) via intragastric administration for 60 days. Throughout the study-period, animals were housed in a controlled environment (temperature, 22° C.; humidity, 50-60%, 12-hour light/12-hour dark schedules), with free access to rodent chow and water. […] For quantitation purposes, a highly specific and sensitive mouse Aβ42 ELISA kit was used (Invitrogen Corporation, Carlsbad, Calif.). Brain tissue protein was extracted by homogenizing about 100 mg brain tissue with an 8-fold mass quantity of cold 5 M guanidine-HCl and 50 mM Tris (pH 8.0), and incubating the homogenate at room temperature for 3.5 hours. […] Soluble and insoluble brain samples including cortex and hippocampus were analyzed for Aβ levels using the mouse Aβ42 ELISA kit, according to the manufacturer's instructions. […] The obtained values were corrected for the wet weight of each brain sample and expressed as μg/mg brain.
Background: An ELISA detects its analyte on a solid surface through an enzyme-linked reagent.

The subject of data set [4] is Aβ plaques and Iba1-positive microglia. Description: Immunofluorescence labeling (Aβ+IBA1). The class given is in vivo, mouse. Particulars: APP/PS1 mice. As to the method: The backgrounds of all mice (APP/PS1 dual transgenic mice and wild-type mice with littermates) were C57/B6. Transgenic mice were randomly divided into three groups (n=20 for each group), and wild-type mice were used as controls (n=20). The control group and one group of transgenic mice (model group) were given sterilized ultrapure water, and the other two groups of transgenic mice received low- and high-dose Isoorientin (20 and 50 mg/kg, respectively) via intragastric administration for 60 days. Throughout the study-period, animals were housed in a controlled environment (temperature, 22° C.; humidity, 50-60%, 12-hour light/12-hour dark schedules), with free access to rodent chow and water. After a Morris water maze test, mice were perfused with cold phosphate-buffered saline (PBS), brain tissues were dissected and kept frozen at −80° C. until further analysis. […] Double-labelling procedures were performed to determine the relationship between Iba1-positive and Aβ-positive plaques. […] Sections were then blocked with 5% BSA in 0.01% TRITON X-100 in TBS (TBST) for 1 hour at room temperature. […] Representative images were obtained by fluorescence microscope (Leica).

“Also recorded” adds a separate entry of the source.

In the case of `O=c1cc(-c2ccc(O)c(O)c2)oc2cc(O)c([C@@H]3O[C@H](CO)[C@@H](O)[C@H](O)[C@H]3O)c(O)c12` [Compound 1, isoorientin], in data set [1], the Pe is reported as 0.51 ± 0.01 ×10^−6 cm/s and the “R (percent recovery)” value was 48%. In data set [2] (all doses, vs untreated APP/PS1), the platform cross frequencies result was “significantly increased”. The escape latency entry in data set [2] (intragastric, 60 days, all doses, vs untreated APP/PS1) is recorded as “significantly reduced the escape latency”. Further, in data set [2] (oral, 25-mg/kg), the cognitive deficit result was “significant alleviation of cognitive deficit”. Also, the “Aβ42 in brain (cortex+hippocampus)” value in data set [3] (high-dose group 50 mg/kg, oral, 60 days) is “significantly lower; also recorded: significant decrease”. For the same compound, in data set [3] (low-dose group), the “Aβ42 in brain (cortex+hippocampus)” value is on record as “no statistically significant difference”. For the same compound, in data set [4], the “Aβ plaques in cortex and hippocampus” value is reported as “reduced”; the “activated aggregated Iba1-positive cells around plaques” value was “also reduced”.
